In patent US12410155B2, “Salt form and crystal form of tetrahydrocyclohepta indazole compound” (Zhejiang Yangli Pharmaceutical Technology Co., Ltd., priority 2021, dated 2025):

Molecular target: T1, CYP1A2 (Homo sapiens, UniProt P05177)
T1 sequence (P05177 1-516): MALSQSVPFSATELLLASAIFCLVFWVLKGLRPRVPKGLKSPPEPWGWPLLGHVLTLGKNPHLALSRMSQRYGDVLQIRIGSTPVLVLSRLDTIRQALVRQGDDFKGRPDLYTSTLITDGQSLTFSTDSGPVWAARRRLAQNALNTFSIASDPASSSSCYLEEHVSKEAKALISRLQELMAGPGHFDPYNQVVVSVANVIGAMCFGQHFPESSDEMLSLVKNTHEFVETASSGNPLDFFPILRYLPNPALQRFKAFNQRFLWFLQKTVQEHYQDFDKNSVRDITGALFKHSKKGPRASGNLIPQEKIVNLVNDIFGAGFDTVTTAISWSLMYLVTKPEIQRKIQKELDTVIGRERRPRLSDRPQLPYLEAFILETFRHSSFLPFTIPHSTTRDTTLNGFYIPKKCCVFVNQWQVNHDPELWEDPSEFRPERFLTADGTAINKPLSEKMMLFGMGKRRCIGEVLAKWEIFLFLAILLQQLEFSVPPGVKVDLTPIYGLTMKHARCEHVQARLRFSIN
Assay: Inhibition of cytochrome P450 isozymes in human liver microsomes, CYP1A2
Format: in vitro ADME
Conditions: phenacetin substrate
Procedure: (1) Study on the Inhibition of Cytochrome P450 Isozymes
The probe substrate, test compound, human liver microsomes, and cofactors were incubated together. The concentration of the metabolic product of the probe substrate was detected using LC-MS/MS to calculate the IC50 values. In the vehicle control samples, the test compound was replaced with an equal volume of vehicle, and the enzyme activity of the vehicle control samples was set as 100%. […]
Upon reaching the respective reaction times for the incubation systems of the various isoenzymes, 200 μL of termination solution containing the appropriate internal standard was added to the reaction plate to terminate the reaction. […] The metabolites of the probe substrates were then analyzed using LC-MS/MS. […]
The activity of various CYP isoenzymes was reflected by the production rate of metabolites from each probe substrate. […] The residual activity percentage of each isoenzyme was determined by comparing the metabolite production rate of the probe substrate in the presence of different concentrations of the test compound or positive inhibitor to that of the vehicle control samples, then multiplying by 100%. […]

Work on `FCCCN1CC[C@H](Nc2cnc(C3=C(CC(F)(F)F)CCCc4c3ccc3[nH]nc(F)c43)cn2)C1` [Compound of formula (I)] yielded an IC50 of 97.2 µM.
